The values that follow are results of earlier work, collected in US20250170094A1 (priority 2023, published 2025).

Assay in series [1]: not given
The source holds these as a separate data set.

Where two headings read alike, the source gives them in different places.

Regarding `CCC(CC)[C@H](NC(C)=O)[C@@H]1[C@H](O)[C@@H](C(=O)O)C[C@H]1NC(=N)N` [peramivir, (1S,2S,3R,4R)-3-[(1S)-1-(acetylamino)-2-ethylbutyl]-4-guanidino-2-hydroxycyclopentanecarboxylic acid], the “oil-water partition coefficient LogP[n-octanol/water]” value is listed as −1.16. The solubility entry in series [1] (pH 1.0) is recorded as “about 59 mg/ml”. Also, in series [1] (pH≥5), the solubility is not above 20 mg/mL.

One may read the solubility as the concentration that dissolves in the medium under given conditions.
